Where “and” joins values, the source holds several entries; their conditions need not be identical. Equal values may be shown once.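 All cell lines were grown in 96-well plates and treated with compound for 48 hours. GI50 is the concentration that inhibits growth by half.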 Calls of active or inactive are those of the source. Rule as the data show it: active = GI50 up to about 1.1 µM and inactive = higher.
Columns and labels:
Assay in all cases: growth of human tumour cells (NCI), 48 h
[1] = system: IGROV-1
[2] = system: EKVX
[3] = system: HOP-92
[4] = system: SW-620
[5] = system: HCC 2998
[6] = system: HT-29
[7] = system: A549
[8] = system: DU-145
[9] = system: BT-549
[10] = system: MDA-MB-231
[11] = system: ACHN
[12] = system: HCT-15
[13] = system: KM12
[14] = system: UACC-62
[15] = system: MCF7
[16] = system: OVCAR-8
[17] = system: PC-3
[18] = system: HL-60
[19] = system: MDA-MB-435
[20] = system: NCI-H23
[21] = system: OVCAR-4
[22] = system: SF-295
[23] = system: K562
[24] = system: MDA-N
[25] = system: SK-MEL-2
[26] = system: RPMI-8226
[27] = system: SNB-75
[28] = system: A498
[29] = system: NCI-H522
[30] = system: SK-MEL-5
[31] = system: HCT-116
[32] = system: SN12C
[33] = system: SF-268
[34] = system: CAKI-1
[35] = system: OVCAR-5
[36] = system: SF-539
[37] = system: LOX IMVI
[38] = system: HOP-62
[39] = system: UO-31
[40] = system: SR
[41] = system: 786-0
[42] = system: SNB-19
[43] = system: TK-10
[44] = system: CCRF-CEM
[45] = system: M14
[46] = system: NCI-H460
[47] = system: NCI-H226
[48] = system: MOLT-4
[49] = system: RXF 393
[50] = system: Hs-578T
[51] = system: NCI/ADR-RES
[52] = system: COLO 205
[53] = system: Malme-3M
[54] = system: T47D
[55] = system: OVCAR-3
[56] = system: UACC-257
[57] = system: U-251
[58] = system: SK-MEL-28
[59] = system: SK-OV-3

Measured: GI50

COc1ccc2[nH]cc([C@@H]3C4CCC(C4)[C@H]3NCc3cccc(CN[C@H]4C5CCC(C5)[C@@H]4c4c[nH]c5ccc(OC)cc45)c3)c2c1
1.15 µM (inactive) and 933 nM (active): [24]
1.5 µM (inactive) and 1.01 µM (active): [15]
inactive: [1] 1.42 µM and 1.58 µM | [2] 1.51 µM and 1.52 µM | [7] 1.46 µM and 1.61 µM | [8] 1.67 µM and 1.68 µM | [9] 1.69 µM and 1.62 µM | [10] 1.44 µM and 1.2 µM | [11] 1.76 µM and 1.16 µM | [14] 1.8 µM and 1.75 µM | [17] 1.29 µM and 1.46 µM | [20] 1.75 µM and 1.53 µM | [21] 1.37 µM and 1.32 µM | [22] 1.45 µM and 1.66 µM | [25] 1.59 µM and 1.55 µM | [27] 1.26 µM and 1.22 µM | [28] 1.82 µM and 1.78 µM | [29] 1.5 µM and 1.17 µM | [30] 1.62 µM and 1.55 µM | [33] 1.53 µM and 1.47 µM | [34] 1.6 µM and 1.79 µM | [35] 1.55 µM and 1.71 µM | [38] 1.62 µM and 1.6 µM | [39] 1.36 µM and 1.52 µM | [42] 1.53 µM and 1.65 µM | [43] 1.63 µM and 1.51 µM | [47] 2.01 µM and 1.91 µM | [49] 1.36 µM and 1.66 µM | [50] 1.71 µM and 1.5 µM | [51] 1.55 µM and 1.68 µM | [53] 1.86 µM and 1.88 µM | [54] 1.72 µM and 1.99 µM | [55] 1.65 µM and 1.54 µM | [56] 1.38 µM and 1.64 µM
1 µM (active) and 1.73 µM (inactive): [36]
1.1 µM (active) and 1.51 µM (inactive): [32]
active: [4] 238 nM and 384 nM | [5] 339 nM and 256 nM | [6] 230 nM and 218 nM | [13] 463 nM and 643 nM | [16] 891 nM and 998 nM | [18] 214 nM and 191 nM | [19] 520 nM and 733 nM | [23] 228 nM and 178 nM | [26] 531 nM and 369 nM | [31] 766 nM and 678 nM | [37] 244 nM and 235 nM | [40] 231 nM and 250 nM | [41] 731 nM and 708 nM | [44] 366 nM and 352 nM | [45] 640 nM and 600 nM | [46] 340 nM and 237 nM | [48] 577 nM and 467 nM | [52] 401 nM and 577 nM
791 nM and 998 nM: [12]
1.1 µM (active) and 1.31 µM (inactive): [3]

Cc1ccccc1NC(=S)N/N=C(/c1ccccc1)c1ccccn1
active: [1] < 10 nM | [2] < 38.1 nM | [3] 283 nM | [4] < 10 nM | [6] < 18.2 nM | [7] 42.8 nM | [8] 838 nM | [10] < 10 nM | [11] < 10 nM | [13] 40.5 nM | [14] 171 nM | [15] 21.5 nM | [16] 27.9 nM | [17] < 10 nM | [18] < 73.6 nM | [19] 757 nM | [20] < 10 nM | [21] 82.6 nM | [22] 88.3 nM | [23] < 28.2 nM | [24] 700 nM | [57] < 10 nM | [26] < 10 nM | [27] 933 nM | [28] 398 nM | [29] 90.2 nM | [30] 66.4 nM | [31] < 10 nM | [32] 67 nM | [33] 90.4 nM | [34] 74.3 nM | [35] < 16.5 nM | [36] 384 nM | [37] < 10 nM | [38] 33.1 nM | [39] 26.6 nM | [40] < 26.2 nM | [41] < 21.4 nM | [43] < 29.5 nM | [44] < 10 nM | [45] < 27 nM | [46] 70.2 nM | [47] 29.5 nM | [48] < 29.5 nM | [49] 589 nM | [59] 12.8 nM | [51] < 18.7 nM | [52] < 10 nM | [54] < 10 nM | [55] < 10 nM | [56] < 10 nM
inactive: [5] 3.22 µM | [9] 2.58 µM | [25] 3.36 µM | [58] 2300 nM | [42] 1.62 µM | [50] 13.2 µM
< 10 nM: [12]

O=C(NO)c1ccc(OCc2ccccc2)cc1
15000 nM: [12]
inactive: [1] 14300 nM | [2] 20700 nM | [3] 33500 nM | [4] 24500 nM | [5] 22.6 µM | [6] 29200 nM | [7] 33000 nM | [8] 14300 nM | [9] 26.5 µM | [10] 26800 nM | [11] 22300 nM | [13] 25500 nM | [14] 14900 nM | [15] 55800 nM | [16] 6710 nM | [17] 23300 nM | [18] 16000 nM | [19] 29200 nM | [20] 14100 nM | [21] 15000 nM | [22] 26200 nM | [23] 37700 nM | [24] 25900 nM | [57] 27500 nM | [25] 30.3 µM | [26] 12000 nM | [27] 29400 nM | [28] 16300 nM | [29] 9620 nM | [30] 45600 nM | [31] 12100 nM | [32] 43400 nM | [33] 39700 nM | [34] 18100 nM | [35] 27400 nM | [36] 28700 nM | [58] 28100 nM | [37] 19100 nM | [38] 35100 nM | [39] 22200 nM | [40] 14100 nM | [41] 16900 nM | [42] 33.3 µM | [43] 23700 nM | [44] 6890 nM | [45] 47600 nM | [46] 19500 nM | [47] > 100000 nM | [48] 15300 nM | [49] 26700 nM | [50] 65.3 µM | [59] 37200 nM | [51] 4000 nM | [52] 22800 nM | [54] 11500 nM | [55] 9950 nM | [56] 29400 nM

COc1ccc([C@@]23Oc4cc(OC)cc(OC)c4[C@]2(O)[C@H](O)[C@H](C(=O)N(C)C)[C@H]3c2ccccc2)cc1 [ROCAGLAMIDE]
17.6 nM: [12]
active: [1] 6.12 nM | [2] 20.3 nM | [3] 13.8 nM | [4] 2.99 nM | [5] 0.00289 µM | [6] 2.24 nM | [7] 3.53 nM | [8] 8.09 nM | [9] 0.0583 µM | [10] 7.76 nM | [11] 3.44 nM | [13] 2.94 nM | [14] 6.76 nM | [15] 2.92 nM | [16] 10.9 nM | [17] 8.36 nM | [18] 3.83 nM | [19] 3.6 nM | [20] 8.85 nM | [21] 20.6 nM | [22] 4.5 nM | [23] 2.37 nM | [24] 3.55 nM | [57] 6.05 nM | [25] 0.0197 µM | [26] 5.55 nM | [27] 9.35 nM | [28] 7.91 nM | [29] 10.4 nM | [30] 3.01 nM | [31] 3.16 nM | [32] 8.15 nM | [33] 8.49 nM | [34] 29.2 nM | [35] 9.91 nM | [58] 6.89 nM | [37] 1.91 nM | [38] 9.73 nM | [39] 15.8 nM | [40] 1.62 nM | [41] 9.53 nM | [42] 0.267 µM | [43] 14.6 nM | [44] 3.66 nM | [45] 3.27 nM | [46] 2.7 nM | [47] 11.3 nM | [48] 1.92 nM | [49] 20.6 nM | [50] 0.00875 µM | [59] 5.75 nM | [51] 30.6 nM | [52] 6.47 nM | [53] 4.29 nM | [54] 2.19 nM | [55] 56 nM | [56] 18.4 nM

— ChEMBL document CHEMBL1201862, “PubChem BioAssay data set” (2004)
